Experimental data published in US6147097A, “Imidazole derivatives as anti-HIV agents” (Shionogi & Co., Ltd., priority 1994, dated 2000).
Values after ≈ are worked out from the molar mass of the structure shown. Where two headings read alike, the source gives them in different places.

Legend:
HIV (HTLV-IIIB strain) = experiment: microbe, parasite or virus in culture; format: cell-based; conditions: Human immunodeficiency virus 1, IIIB, MT4, 120 h
Method: The anti-HIV activity of each of the compounds produced in Examples was assayed by the following procedures. […] On the other hand, the test compound was diluted with the above culture medium to predetermined concentrations and distributed in 50 μl aliquots into a 96-well microtiter plate. Then, d suspension of MT-4 cells was added in 100 μl aliquots (3.5×10^4 cells per well) and then the above HIV-containing supernatant diluted with the above culture medium was added, 50 μl (60 pfu (plaque forming units)) per well. (2) The plate was incubated in a CO2 incubator at 37° C. for 5 days. Then, 30 μl/well of 3-(4,5-dimethyl thiazol-2-yl)-2,5-diphenyltetrazolium bromide (MTT) (5 mg/ml PBS) was added and the incubation was further continued for 1 hour. The surviving cells reducing MTT yield precipitation of formazan. Therefore, 150 μl portions of the culture supernatant were removed from all wells and, instead, 150 μl of a solution (10% Triton X-100 and 0.4% (v/v) HCl-added isopropyl alcohol) was added. The plate was shaken on a plate mixer to dissolve the formazan.

[1] = cytotoxicity in MT-4 cells (MTT, culture medium in place of HIV); format: cell-based; conditions: human
Method: The anti-HIV activity of each of the compounds produced in Examples was assayed by the following procedures. (1) Human T cell line MOLT-4 clone 8 persistently infected by HIV (HTLV-IIIB strain) was cultured in an RPMI-1640 medium supplemented with 10% fetal calf serum, the culture supernatant was filtered, and the titer of virus was determined; the culture supernatant was stored at -80° C. On the other hand, the test compound was diluted with the above culture medium to predetermined concentrations and distributed in 50 μl aliquots into a 96-well microtiter plate. Then, d suspension of MT-4 cells was added in 100 μl aliquots (3.5×10^4 cells per well) and then the above HIV-containing supernatant diluted with the above culture medium was added, 50 μl (60 pfu (plaque forming units)) per well. (2) The plate was incubated in a CO2 incubator at 37° C. for 5 days. Then, 30 μl/well of 3-(4,5-dimethyl thiazol-2-yl)-2,5-diphenyltetrazolium bromide (MTT) (5 mg/ml PBS) was added and the incubation was further continued for 1 hour. The surviving cells reducing MTT yield precipitation of formazan. Therefore, 150 μl portions of the culture supernatant were removed from all wells and, instead, 150 μl of a solution (10% Triton X-100 and 0.4% (v/v) HCl-added isopropyl alcohol) was added. The plate was shaken on a plate mixer to dissolve the formazan. The OD of formazan was measured with a microreader at 560 nm arid 690 nm (reference wavelength) and the result was compared with that of control.
The cytotoxicity of each of the compounds produced in Examples was assayed. In place of the HIV-containing supernatant (the virus suspension) in (1) in Test Example 1, 50 μl of the culture medium was added to each well, and the cytotoxicity was determined in the same manner as that for (2) in Test Example 1.

[2] = biological target: T1, purified recombinant HIV-1 reverse transcriptase (Human immunodeficiency virus type 1 group M subtype B, UniProt P04585); experiment: reverse transcriptase inhibition, poly(rA)/(dT) template primer, [3H]dTTP uptake; format: biochemical
T1 construct: purified recombinant HIV-1 reverse transcriptase; made in house; host or cells: Escherichia coli
Method: The reverse transcriptase activity of each of the compounds synthesized in Examples was assayed by the following procedures.
Using the purified recombinant HIV-1 reverse transcriptase RT, E.C. 2.7.7.49) obtained by expression in Escherichia Coli, a 96-well plate assay system was established for assaying a large number of samples. The RT inhibitory activity was determined as follows. To 11 μl of a solution of the test inhibitor in water or MSO was added 100 μl of a reaction mixture (0.1 unit/100 μl RT, 50 mM Tris-HCl pH 8.3, 150 mM KCl, 10 mM MgCl2, 3 mM dithiothreitol, 0.1% Nonidet P-40, 10 μg/ml. poly(rA) and 10 μg/ml (dT)12-1.8 as template and primer, and 4 μM dTTP, 1 μCi/100 μl [^3 H]dTTP as substrate) and the mixture was incubated at 37° C. for 1 hour and, then, immediately cooled on ice. Using a cell harvester, the reaction mixture was transferred to a DEAE-filter mat (LKB-Pharmacia). Then, using the wash line of the cell harvester, the cells were washed twice with 5% Na2 HPO4 /H2 O and once with water and dried at 95° C. for 15 minutes. […] The inhibitory activity was expressed in percent inhibition relative to the uptake on water or DMSO control.

[3] = MT-4 cells, 60 pfu HIV per well, 37° C., 5 days, MTT, Tables 1 and 2, read-out: EC50
[4] = MT-4 cells, no virus, 37° C., 5 days, MTT, Table 3, read-out: CC50

| Compound | EC50 (HIV (HTLV-IIIB strain); [3]) [µg/mL] | CC50 at 120 h ([1]; mt-4 cells) [µg/mL] | IC50 [2] [µM] | EC50 (HIV (HTLV-IIIB strain)) [µg/mL] | CC50 at 120 h [1, 4] [µg/mL] | IC50 ([2]; read-out: RT IC50, pH 8.3, 37° C., 1 hour, Tables 5 and 6) [µM] |
| --- | --- | --- | --- | --- | --- | --- |
| CC(C)c1nc(CO)n(Cc2cccc([N+](=O)[O-])c2)c1Sc1cc(Cl)cc(Cl)c1 [Compound 103b, 5-(3,5-dichlorophenylthio)-2-hydroxymethyl-4-isopropyl-1-(m-nitrobenzyl)-1H-imidazole] | 0.008 (≈ 0.0177 µM) | 50 (≈ 111 µM) | 25 | – | – | – |
| CC(C)c1nc(CN=C(N)N)n(C)c1Sc1cc(Cl)cc(Cl)c1 [Compound I-86, 2-diaminomethylenemethylaminomethyl-5-(3,5-dichlorophenylthio)-4-isopropyl-1-methylimidazole] | 1 (≈ 2.69 µM) | 1 (≈ 2.69 µM) | 33.6 | – | – | – |
| CC(C)c1nc(CO)n(Cc2ccc(N)cc2)c1Sc1cc(Cl)cc(Cl)c1 [Compound 104a, 1-(p-aminobenzyl)-5-(3,5-dichlorophenylthio)-2-hydroxymethyl-4-isopropyl-1H-imidazole] | < 0.008 | 12.5 to 25 (≈ 29.6 to 59.2 µM) | 3.08 | – | – | – |
| CC(C)c1nc(COC(N)=O)n(CF)c1Sc1cc(Cl)cc(Cl)c1 [Compound I-56, 2-carbamoyloxymethyl-5-(3,5-dichlorophenylthio)-1-fluoromethyl-4-isopropyl-1H-imidazole] | – | – | 2.37 | 0.008 (≈ 0.0204 µM) | 10 to 100 (≈ 25.5 to 255 µM) | – |
| CC(C)c1nc(CCO)n(Cc2ccccc2[N+](=O)[O-])c1Sc1cc(Cl)cc(Cl)c1 [Compound 126c, 5-(3,5-Dichlorophenylthio)-2-(2-hydroxyethyl)-4-isopropyl-1-o-nitrobenzyl-1H-imidazole] | 0.13 (≈ 0.279 µM) | 6.3 (≈ 13.5 µM) | 60.9 | – | – | – |
| CC(=O)Cn1c(CO)nc(C(C)C)c1Sc1cc(Cl)cc(Cl)c1 [Compound I-32] | 0.06 (≈ 0.161 µM) | – | 7.23 | – | 10 to 100 (≈ 26.8 to 268 µM) | – |
| CC(C)c1nc(CO)n(Cc2ccccc2)c1Sc1cccc(Cl)c1 [Compound I-20, [1-benzyl-5-(3-chlorophenylthio)-4-isopropyl-1H-imidazol-2-yl]methanol] | 0.008 (≈ 0.0215 µM) | – | 5.63 | – | 6.3 to 12.5 (≈ 16.9 to 33.5 µM) | – |
| CC(C)c1nc(COC(N)=O)n(Cc2ccccc2)c1Sc1cccc([N+](=O)[O-])c1 [Compound I-47, 1-benzyl-2-carbamoyloxymethyl-4-isopropyl-5-(3-nitrophenylthio)-1H-imidazole] | – | – | 2.3 | 0.002 (≈ 0.00469 µM) | 6.3 to 12.5 (≈ 14.8 to 29.3 µM) | – |
| CC(C)c1nc(CO)n(Cc2ccccc2)c1Sc1cc(Cl)cc(Cl)c1 [Compound I-16, [1-benzyl-5-(3,5-dichlorophenylthio)-4-isopropyl-1H-imidazol-2-yl]methanol] | 0.008 to 0.016 (≈ 0.0196 to 0.0393 µM) | – | 3.68 | – | 12.5 to 25 (≈ 30.7 to 61.4 µM) | – |
| CC(C)c1nc(CO)n(CCCc2ccccc2)c1Sc1cc(Cl)cc(Cl)c1 [Compound I-122, 5-(3,5-dichlorophenylthio)-2-hydroxymethyl-4-isopropyl-1-(3-phenylpropyl)-1H-imidazole] | 0.008 (≈ 0.0184 µM) | 6.3 to 12.5 (≈ 14.5 to 28.7 µM) | 7.12 | – | – | – |
| CC(C)c1nc(CCCOC(N)=O)n(CCOC(N)=O)c1Sc1cc(Cl)cc(Cl)c1 [Compound I-151, 1-(2-carbamoyloxyethyl)-2-(3-carbamoyloxypropyl)-5-(3,5-dichlorophenylthio)-4-isopropyl-1H-imidazole] | 0.0006 (≈ 0.00126 µM) | 50 to 100 (≈ 105 to 210 µM) | 6.1 | – | – | – |
| CCn1c(CN)nc(C(C)C)c1Sc1cccc(Cl)c1 [Compound I-73, 2-aminomethyl-5-(3-chlorophenylthio)-1-ethyl-4-isopropylimidazole] | 0.016 (≈ 0.0516 µM) | 6.3 (≈ 20.3 µM) | 0.807 | – | – | – |
| CC(C)c1nc(CO)n(CF)c1Sc1cc(Cl)cc(Cl)c1 [Compound I-34, [1-fluoromethyl-5-(3,5-dichlorophenylthio)-4-isopropyl-1H-imidazol-2-yl]methanol] | 0.006 (≈ 0.0172 µM) | 13.5 (≈ 38.7 µM) | 4.01 | – | – | – |
| CC(C)C(=O)c1nc(C(C)C)c(Sc2cc(Cl)cc(Cl)c2)n1C [Compound I-12, [5-(3,5-dichlorophenylthio)-4-isopropyl-1-methyl-1H-imidazol-2-yl] isopropyl ketone] | 50 (≈ 135 µM) | – | > 269 | – | 50 to 100 (≈ 135 to 269 µM) | – |
| CC(C)c1nc(CO)n(CCCCc2ccccc2)c1Sc1cc(Cl)cc(Cl)c1 [Compound I-123, 5-(3,5-dichlorophenylthio)-2-hydroxymethyl-4-isopropyl-1-(4-phenylbutyl)-1H-imidazole] | 0.06 (≈ 0.133 µM) | 12.5 (≈ 27.8 µM) | 77.4 | – | – | – |
| CC(C)c1c(Sc2cccc(Cl)c2)nc(CO)n1C [Compound I-38, [4-(3-chlorophenylthio)-5-isopropyl-1-methyl-1H-imidazol-2-yl]methanol] | 6.3 (≈ 21.2 µM) | – | 273 | – | 12.5 to 25 (≈ 42.1 to 84.2 µM) | – |
| CC(C)c1nc(CN)n(Cc2ccncc2)c1Sc1cc(Cl)cc(Cl)c1 [I-95', 2-aminomethyl-5-(3,5-dichlorophenylthio)-4-isopropyl-1-(pyridin-4-yl)methyl-1H-imidazole] | 0.005 (≈ 0.0123 µM) | – | 1.18 | – | 6.3 to 12.5 (≈ 15.5 to 30.7 µM) | – |
| CC(C)c1nc(CO)n(Cc2ccccc2)c1Sc1cccc([N+](=O)[O-])c1 [Compound I-21, [1-benzyl-4-isopropyl-5-(3-nitrophenylthio)-1H-imidazol-2-yl]methanol] | 0.008 (≈ 0.0209 µM) | – | 7.56 | – | 6.3 to 12.5 (≈ 16.4 to 32.6 µM) | – |
| CC(C)c1nc(COCc2ccccc2)n(CCO)c1Sc1cc(Cl)cc(Cl)c1 [Compound 118c, 2-[2-benzyloxymethyl-5-(3,5-dichlorophenylthio)-4-i-sopropyl-1H-imidazol-1-yl]ethanol] | 1 (≈ 2.22 µM) | 6.3 to 12.5 (≈ 14 to 27.7 µM) | > 222 | – | – | – |
| COC(=O)C(C)c1nc(C)n(C)c1Sc1cc(C)cc(C)c1 (stereo not drawn) [Compound I-96, methyl 2-[1,2-dimethyl-5-(3,5-dimethylphenylthio)-1H-imidazol-4-yl]propionate] | 0.03 (≈ 0.0942 µM) | – | 14.4 | – | 10 to 100 (≈ 31.4 to 314 µM) | – |
| CC(C)c1nc(CO)n(CCc2ccccc2)c1Sc1cc(Cl)cc(Cl)c1 [Compound I-121, 5-(3,5-dichlorophenylthio)-2-hydroxymethyl-4-isopropyl-1-(2-phenylethyl)-1H-imidazole] | 0.06 (≈ 0.142 µM) | 12.5 (≈ 29.7 µM) | 85.2 | – | – | – |
| CC(C)c1nc(CN)n(Cc2ccccc2)c1Sc1cc(Cl)cc(Cl)c1 [Compound I-70, 2-aminomethyl-1-benzyl-5-(3,5-dichlorophenylthio)-4-isopropylimidazole] | 0.03 (≈ 0.0738 µM) | – | 4.43 | – | 6.3 to 12.5 (≈ 15.5 to 30.8 µM) | – |
| CCn1c(COC(N)=O)nc(C(C)C)c1Sc1cccc(F)c1 [Compound I-57, 2-carbamoyloxymethyl-1-ethyl-5-(3-fluorophenylthio)-4-isopropylethyl-1H-imidazole] | – | – | – | 0.0005 to 0.001 (≈ 0.00148 to 0.00296 µM) | 25 to 50 (≈ 74.1 to 148 µM) | 0.119 |
| CC(C)c1nc(CCOC(N)=O)n(Cc2cccc(N)c2)c1Sc1cc(Cl)cc(Cl)c1 [Compound I-142, 1-(m-aminobenzyl)-2-(2-carbamoyloxyethyl)-5-(3,5-dichlorophenylthio)-4-isopropyl-1H-imidazole] | 0.016 to 0.03 (≈ 0.0334 to 0.0626 µM) | 6.3 to 12.5 (≈ 13.1 to 26.1 µM) | 25 | – | – | – |
